Patent publication EP4680608B1, “2,6-DIHYDRO-7H-PYRAZOLO[3,4-C]PYRIDIN-7-ONE DERIVATIVES AS ANTI-MALARIAL AGENTS” (MMV Medicines for Malaria Venture, priority 2024, dated 2025)
pEC50, pIC50: −log10 of the molar value.

Assays:
[1] = biological target: T1, Human DHODH (Homo sapiens, UniProt Q02127); test: DHODH inhibition, steady-state DCIP assay (human DHODH); format: biochemical; conditions: recombinant HsDHODH, DCIP method, 25°C, 5 nM enzyme; top concentration 100 µM or 30 µM
T1 construct: C-terminal His6-tagged HsDHODH residues 29-395 in pET-22b (start ^29MATGDE); His6 (C); made in house; host or cells: E. coli BL21-DE3 (phage-resistant)
Text: (§1) DOI: 10.1074/jbc.M206854200).
(§2) Proteins were expressed and purified on a Pharmacia FPLC using HisTrap HP column chromatography followed by gel filtration chromatography on a Pharmacia HiLoad 16/600 Superdex 200 column, and protein concentration determined based on OD280 using the previously described extinction coefficients (Kokkonda et al., 2020, J Med Chem, 63 (9), 4929-4956. DOI: 10.1021/acs.jmedchem.0c00311). Purified proteins were >95% pure based on SDS-PAGE analysis.
(§3) DHODH activity was monitored in a steady-state assay using the 2,6-dichloroindophenol (DCIP) method at 25°C in assay buffer (100 mM HEPES, pH 8.0, 150 mM NaCl, 1% glycerol, 0.1% Triton X-100 reduced) plus substrates 20 µM CoQD, 200 µM DHO, 120 µM DCIP, and 5 nM enzyme as previously described (Malmquist et al, 2008, Biochemistry, 47 (8), 2466-2475. DOI: 10.1021/bi702218c).
(§4) Compound stocks were prepared at 10-100 mM in DMSO, and diluted working stocks in DMSO were generated as appropriate. Compounds were plated from DMSO stocks in 96 well plate format using a Tecan D300e digital dispenser to generate a 3-fold dilution series over a concentration range of 0.0003 -100 µM (or 30 µM), yielding a final DMSO concentration of 1% in the assay. The top concentration used in the dose response was determined by the initial DMSO stock concentrations:100 µM for 100 mM stocks, and 30 µM for 10 mM stocks. Triplicate rate data were collected at each inhibitor concentration. Inhibitory IC50 values were determined by fitting the data to log (inhibitor) vs response equation Y = bottom + (top - bottom)/(1 + 10A ((X - Log IC50))) in GraphPad Prism. DSM265 ^2 was plated as an assay control in all studies.

[2] = biological target: T2, P. falciparum DHODH (Plasmodium falciparum, UniProt Q08210); test: DHODH inhibition, steady-state DCIP assay (PfDHODH); format: biochemical; conditions: recombinant PfDHODH, DCIP method, 25°C, 5 nM enzyme
T2 construct: His6 (N); made in house; host or cells: E. coli BL21-DE3 (phage-resistant)
Method: as §4, with “Prism.” for “Prism. DSM265 ^2 was plated as an assay control in all studies.”

[3] = biological target: P. vivax DHODH (Plasmodium vivax, UniProt A5K1N1); test: DHODH inhibition, steady-state DCIP assay (PvDHODH); format: biochemical; conditions: recombinant PvDHODH, DCIP method, 25°C, 5 nM enzyme; read-out: P. vivax DHODH (IC50)
Text: as §1, §2, §3, §4

[4] = test system: P. falciparum 3D7; test: Asexual blood-stage growth inhibition assay, SYBR green method; format: cell-based; conditions: ring-stage 3D7 parasites
Method: Asexual blood-stage EC50 assays. […] Compound stocks prepared in DMSO were plated using a Tecan D300e automated low volume liquid handler. Ring-stage 3D7 or Dd2 parasites (60 µL cells) (2% hematocrit, 0.5% parasitemia, final DMSO concentration 0.5%) were added to plates, incubated with compounds over a range of concentrations in technical triplicate for 72 h at 37 °C, 5% CO2, and then frozen (-80°C) overnight before analysis. […] Data were analyzed by non-linear regression using GraphPad Prism to determine the EC50 by fitting to the built-in equation (log(inhibitor) vs response-variable slope with four parameters).

[5] = Plasmodium falciparum, 3D7, 72 h

T1 sequence (Q02127 29-395): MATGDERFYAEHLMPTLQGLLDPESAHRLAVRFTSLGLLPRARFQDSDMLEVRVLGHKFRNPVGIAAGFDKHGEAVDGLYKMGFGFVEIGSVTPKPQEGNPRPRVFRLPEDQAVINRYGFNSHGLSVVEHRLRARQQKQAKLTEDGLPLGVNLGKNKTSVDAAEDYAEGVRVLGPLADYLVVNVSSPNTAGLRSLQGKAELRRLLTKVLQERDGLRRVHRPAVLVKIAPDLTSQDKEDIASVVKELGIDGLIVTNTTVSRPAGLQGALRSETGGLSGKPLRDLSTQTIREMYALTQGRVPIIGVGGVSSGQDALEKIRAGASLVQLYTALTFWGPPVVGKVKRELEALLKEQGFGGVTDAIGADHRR
P. vivax DHODH, sequence (A5K1N1 entry or part of it): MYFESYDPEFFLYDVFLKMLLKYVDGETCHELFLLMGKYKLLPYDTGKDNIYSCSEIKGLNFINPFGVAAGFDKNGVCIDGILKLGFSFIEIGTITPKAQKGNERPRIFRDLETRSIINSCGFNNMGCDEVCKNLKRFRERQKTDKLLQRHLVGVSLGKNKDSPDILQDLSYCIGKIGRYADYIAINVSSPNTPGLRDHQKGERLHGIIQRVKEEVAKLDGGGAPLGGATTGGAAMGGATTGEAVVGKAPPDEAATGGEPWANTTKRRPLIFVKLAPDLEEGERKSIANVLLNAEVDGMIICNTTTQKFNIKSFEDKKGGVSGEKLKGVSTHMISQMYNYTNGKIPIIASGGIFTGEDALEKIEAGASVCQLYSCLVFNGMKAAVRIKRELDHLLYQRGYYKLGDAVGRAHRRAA
T2 sequence (Q08210 158-569): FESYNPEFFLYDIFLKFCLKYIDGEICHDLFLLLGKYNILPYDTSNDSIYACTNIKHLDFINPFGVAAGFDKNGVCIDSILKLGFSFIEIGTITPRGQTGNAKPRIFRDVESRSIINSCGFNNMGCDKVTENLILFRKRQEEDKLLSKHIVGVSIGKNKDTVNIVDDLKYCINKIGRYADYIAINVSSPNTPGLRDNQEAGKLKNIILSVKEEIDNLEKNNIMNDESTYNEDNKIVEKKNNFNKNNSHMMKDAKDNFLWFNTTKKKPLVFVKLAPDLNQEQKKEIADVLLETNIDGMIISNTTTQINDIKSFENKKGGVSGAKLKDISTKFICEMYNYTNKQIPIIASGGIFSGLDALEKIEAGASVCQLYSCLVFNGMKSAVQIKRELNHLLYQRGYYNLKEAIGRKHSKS

Row | SMILES | pIC50 [1] | pIC50 [2] | pIC50 [3] | pEC50 [4, 5] | pEC50 ([4]; 72 h)
1 | Cn1nc2c(=O)n(C3CC3)ncc2c1[C@](O)(c1ccc(C(F)(F)F)c(Cl)c1)C(F)(F)F (single isomer, unassigned) [5-15] | 4.62 | 8.07 | 8.03 | 9.54 | 
2 | Cn1nc2c(=O)n(C3CC3)cnc2c1[C@](O)(c1ccc(C(F)(F)F)c(Cl)c1)C(F)(F)F (single isomer, unassigned) [5-17] | 5.25 | 8.34 | 8.21 | 10.34 | 
3 | Cn1nc2c(=O)n(C3CC3)cnc2c1[C@](O)(c1ccc(C(F)(F)F)c(C#N)c1)C(F)(F)F (single isomer, unassigned) [5-19] | 4.77 | 7.92 | 7.70 |  | 9.46
4 | Cn1nc2c(=O)n(C3CC3)cnc2c1[C@](O)(c1ccc(C(F)(F)F)nc1)C(F)(F)F (single isomer, unassigned) [5-21] | < 4.52 | 7.51 | 7.54 | 8.68 | 
5 | Cn1nc2c(=O)n(C3CC3)cnc2c1[C@](O)(c1cnc(C(F)(F)F)c(Cl)c1)C(F)F (single isomer, unassigned) [5-22] | 4.66 | 7.96 | 8.11 | 8.21 | 
6 | CC(C)n1cnc2c([C@](O)(c3ccc(C(F)(F)F)c(Cl)c3)C(F)(F)F)n(C)nc2c1=O (single isomer, unassigned) [5-32] | 4.85 | 8.30 | 8.07 | 9.60 | 
7 | Cn1nc2c(=O)n(C3CC3)cnc2c1[C@](N)(c1ccc(C(F)(F)F)c(C#N)c1)C(F)(F)F (single isomer, unassigned) [5-40] | < 4.52 | 7.74 | 7.66 | 8.51 | 
8 | Cn1nc2c(=O)n(C3CC3)ccc2c1[C@](N)(c1ccc(C(F)(F)F)c(C#N)c1)C(F)(F)F (single isomer, unassigned) [5-45] | 4.52 | 8.09 | 8.07 | 9.07 | 
9 | Cn1nc2c(=O)n(C3CC3)ccc2c1[C@](N)(c1ccc(C(F)(F)F)c(Cl)c1)C(F)(F)F (single isomer, unassigned) [5-49] | 5.05 | 8.41 | 8.38 | 9.19 | 
10 | Cn1nc2c(=O)n(C3CC3)cnc2c1[C@](N)(c1ccc(C(F)(F)F)c(Cl)c1)C(F)(F)F (single isomer, unassigned) [5-51] | 4.52 | 8.37 | 8.40 | 9.15 | 
11 | Cn1nc2c(=O)n(C3CC3)cnc2c1[C@](O)(c1cnc(C(F)(F)F)c(C#N)c1)C(F)(F)F (single isomer, unassigned) [5-52] | < 4.52 | 7.21 | 7.34 | 7.96 | 
12 | Cn1nc2c(=O)n(C3CC3)cnc2c1[C@](O)(c1ccc(C(F)F)c(C#N)c1)C(F)(F)F (single isomer, unassigned) [5-54] | < 4.52 | 7.36 | 8.46 | 8.52 | 
13 | CCC(O)(c1cnc(C(F)(F)F)c(Cl)c1)c1c2cc(C)n(C3CC3)c(=O)c2nn1C (centres unmarked) [1-7, 3-(1-(5-chloro-6-(trifluoromethyl)pyridin-3-yl)-1-hydroxypropyl)-6-cyclopropyl-2,5-dimethyl-2,6-dihydro-7H-pyrazolo[3,4-c]pyridin-7-one] | 4.85 | 7.22 | 7.59 | 8.19 | 
14 | Cn1nc2c(=O)n(CC(F)(F)F)cnc2c1[C@](O)(c1ccc(C(F)(F)F)c(Cl)c1)C(F)(F)F [5-26, (R)-3-(1-(3-chloro-4-(trifluoromethyl)phenyl)-2,2,2-trifluoro-1-hydroxyethyl)-2-methyl-6-(2,2,2-trifluoroethyl)-2,6-dihydro-7H-pyrazolo[4,3-d]pyrimidin-7-one] | < 4.52 | 7.77 | 7.60 | 9.41 | 
